N[C@@H](Cc1ccccc1)C(=O)O
solubility (mole fraction)
Conditions	288.15 K	293.15 K	298.15 K	303.15 K	308.15 K
in ethanol	8.9e-05	9.96e-05	0.000116	0.000134	0.00016
in methanol	0.00032	0.000416	0.000563	0.00065	0.000743
in water	0.00219	0.00247	0.00277	0.00312	0.00348

Source: BigSolDB 2.1
